# In patent US9221781B2, “Synthesis of polyhydroxy chromenone compounds and their anti-tumor effects” (BEIJING SHENOGEN PHARMA GROUP LTD., priority 2012, dated 2015):
# What was measured:
# [1] = system: colon cancer LS174T cells; experiment: Inhibition of colon cancer cells LS174T in vitro by MTT method; assay type: cell-based; details: Homo sapiens, 72 hours, FIG. 6, read-out: IC50, in vitro inhibition on cell line LS174T of colon carcinoma
# Method: A: Inhibition of Colon Cancer Cells LS174T In Vitro by the Compounds by MTT Method
# (§1) The colon cancer LS174T cells were subseeded in a 96-well culture plate at a concentration of 4.5×10^3 cells/well and maintained in phenol red free 1640 medium containing 2.5% CS-FBS at 37° C. in a 5% CO2 atmosphere. LS174T cells were treated with a test compound dissolved in DMSO at the concentration of 0, 1, 2, 4, 8, 10 and 20 μM for 72 hours. OD value was tested by MTT method, and the inhibition percentage was calculated.
# Daudi cells = experiment: Inhibition of human B lymphoma Daudi cells by CellTiter-Glo Luminescent Assay in vitro; assay type: cell-based; details: Homo sapiens, 72 hours, read-out: Inhibition of viability of cells in vitro IC50, Daudi cells
# Method: A: Inhibition of Human B Lymphoma Daudi Cells by CellTiter-Glo® Luminescent Assay In Vitro
# The Human B Lymphoma Daudi cells from ATCC were maintained in IMDM and 10% fetal calf serum at 37° C. in a 5% CO2 atmosphere. The cells were subseeded in a 96-well culture plate at a concentration of 6×10^3 cells/well. Human B Lymphoma Daudi cells were treated with a test compound dissolved in DMSO at the concentration of 0, 0.3 μM, 0.5 μM, 1 μM, 2 μM, 3 μM, 10 μM, 20 μM, 30 μM, 50 μM and 100 μM for 72 hours. Treated cells were examined by CeliTiter-Glo® Luminescent Cell Viability Assay Kit (Promega), and luminescence were recorded with Envision.
# Molt-4 cells = experiment: Inhibition of growth of acute lymphoblastic leukemia Molt-4 cells by MTT method; assay type: cell-based; details: Homo sapiens, 10^−6M, 72 hours, read-out: The inhibition percentage of cell proliferation by the compounds with a concentration of 10^−6M, Molt-4 cells
# Method: B: Inhibition of Growth of Acute Lymphoblastic Leukemia Molt-4 Cells by the Compounds Detected by MTT Method
# The acute lymphoblastic leukemia Molt-4 cells from ATCC were maintained in RPMI-1640 and 10% fetal calf serum at 37° C. in a 5% CO2 atmosphere. The cells were subseeded in a 96-well culture plate at a concentration of 6×10^3 cells/well and maintained RPMI-1640 and 10% fetal calf serum at 37° C. 5%CO2 atmosphere. Molt-4 cells were treated with a test compound dissolved in DMSO at the concentration of 0, 10^−4M, 10^−5M, 10^−6M, 10^−7M, 10^−8M for 72 hours. OD value was tested by MTT method, and the inhibition ratio was calculated.
# MDA-MB-231 cells = experiment: CellTiter-Glo Luminescent Cell Viability Assay on ER-negative breast cancer MDA-MB-231 cells in vitro; assay type: cell-based; details: Homo sapiens, 72 hours, read-out: Inhibition of viability of breast cancer cells IC50, MDA-MB-231 cells
# Method: A: CellTiter-Glo® Luminescent Cell Viability Assay on ER-Negative Breast Cancer MDA-MB-231 In Vitro:
# MDA-MB-231 cells were maintained at 37° C., in a 5% CO2 atmosphere in DMEM and 10% fetal calf serum. The cells were placed at a density of 6×10^3 cells per well in a 96-well plate. MDA-MB-231 cells were treated with a test compound dissolved in DMSO at the concentration of 0, 0.3 μM, 0.5 μM, 1 μM, 2 μM, 3 μM, 5 μM, 10 μM, 20 μM, 30 μM, 50 μM and 100 μM for 72 hours. Treated cells were examined under CellTiter-Glo® Luminescent Cell Viability Assay Kit (Promega), and luminescence were recorded with Envision.
# [2] = system: human endometrial cancer Ishikawa cells xenograft tumor; experiment: Inhibition of growth of human endometrial cancer Ishikawa cells xenografts in nude mice; assay type: in vivo; details: FIG. 11
# Method: Nude mice with Human endometrial cancer Ishikawa cells Xenograft Tumor were treated with the test compounds to test their effect on inhibiting tumor growth. Tumor was taken from nude mice with Ishikawa cells and cut into small pieces. Small pieces of tumor were implanted into the armpit under the right front limb of female nude mice. After the implantation, the mice were injected with E2β solution once a day at the dosage of 7 μg per mouse for 6 days to stimulate growth in the expriment mice. […] Medroxyprogesterone acetate was used as a positive control. Mixed oil was used as a negative control. The test compound was dispersed in mixed oil (20 mg/mL). […] Then the mice were sacrificed and the tumor tissues were dissected and weighed. The tumor growth inhibition rate was a percentage calculated using the formula: tumor growth inhibition rate=(average weight of the tumor in the negative control—average weight of the tumor treated with test compound) / average weight of the tumor in the negative control. The result is drawn as bar graph, referring to FIG. 11.
# lung cancer H460 cells = experiment: Inhibition of lung cancer cells H460 in vitro by MTT method; assay type: cell-based; details: Homo sapiens, NCI-H460, 72 hours, FIG. 5, read-out: IC50, in vitro inhibition on cell line H460 of lung cancer
# Method: A: Inhibition of Lung Cancer Cells H460 In Vitro by the Compounds by MTT Method
# as §1, with “lung” for “colon”, “H460” for “LS174T”, “4.0×10^3” for “4.5×10^3”, “free” for “free 1640”
# MCF7 cells = experiment: CellTiter-Glo Luminescent Cell Viability Assay on ER-positive breast cancer MCF-7 cells in vitro; assay type: cell-based; details: Homo sapiens, 72 hours, read-out: Inhibition of viability of breast cancer cells IC50, MCF7 cells
# Method: B: CellTiter-Glo® Luminescent Cell Viability Assay on ER-Positive Breast Cancer MCF-7 Cells In Vitro:
# MCF7 cells from ATCC were maintained in an Dulbecco's modified Eagle medium (DMEM), and 10% fetal calf serum at 37 in a 5% CO2 atmosphere. Cells were placed at a density of 6×10^3 cells per well in a 96-well plate. MCF 7 cells were treated with a test compound dissolved in DMSO at the concentration of 0, 0.3 μM, 0.5 μM, 1 μM, 2 μM, 3 μM, 5 μM, 10 μM, 20 μM, 30 μM, 50 μM and 100 μM for 72 hours. Treated cells were examined through CellTiter-Glo® Luminescent Cell Viability Assay Kit (Promega), and luminescence were recorded with Envision.
smiles,measurement,setting,value
"CC(C)=CCc1c(O)cc(O)c2c(=O)c(O)c(-c3ccc(C(F)(F)F)cc3)oc12 [Compound 1, 2-(4-trifluoromethylphenyl)-3,5,7-trihydroxy-8-(3-methyl-2-buten-1-yl)-4H-chromen-4-one]",IC50,[1],1 to 4 µM
same,IC50,Daudi cells,0.824 µM
same,inhibition at 1 µM,Molt-4 cells,43.7%
same,IC50,MDA-MB-231 cells,1.07 µM
same,"average tumor weight, inhibition on tumor growth","[2]; Ishikawa bearing nude mice, 17.5, 35 and 70 mg/kg, 20 days of continuous administration",dominant inhibition on tumor growth
same,inhibition effect compared with control drug DMPA,"[2]; Ishikawa bearing nude mice, versus DMPA 120 mg/kg, 20 days",higher than control drug
same,IC50,lung cancer H460 cells,1 to 4 µM
same,IC50,MCF7 cells,2.01 µM
